Consider 22 compounds from patent US20230322788A1, “IMIDAZOTRIAZINE AND PYRROLOPYRIMIDINE DERIVATIVES AS KRAS G12C INHIBITORS” (BeiGene, Ltd., priority 2020, published 2023).

Where only a bound is given, the exact number is not on record here.

Sequence of KRAS (aa 1-169) G12C, C51S, C80L, C118S (P01116 other isoform, or with tags, fused parts or gaps G12C/C51S/C80L/C118S): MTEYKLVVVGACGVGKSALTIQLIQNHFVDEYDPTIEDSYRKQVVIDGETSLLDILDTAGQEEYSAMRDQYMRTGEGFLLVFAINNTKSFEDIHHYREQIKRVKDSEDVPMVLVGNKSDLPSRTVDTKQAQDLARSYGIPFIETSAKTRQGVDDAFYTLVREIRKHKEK

In the first experiment the target is KRAS (aa 1-169) G12C, C51S, C80L, C118S (Homo sapiens (Human), UniProt P01116, C118S/C51S/C80L/G12C). The experiment can be described thus: KRAS G12C SOS1-mediated nucleotide exchange / cRaf RBD binding FRET assay (Biochemical Functional Assay). Particulars: GDP-loaded KRAS G12C pre-incubated with compound at 24° C. for 3 hrs; SOS1, GTPγS, GST-cRaf RBD; inhibition of nucleotide exchange. The method, then:
The KRAS ([…]) G12C, C51S, C80L, C118S with a His-tag was expressed, purified and loaded with GDP in house. All protein and substrate solutions were prepared in assay buffer containing 25 mM HEPES pH7.5, 10 mM MgCl2, and 0.01% Triton X-100. Purified GDP-loaded KRAS (aa 1-169) G12C, C51S, C80L, C118S protein was pre-incubated with a serially diluted compound at 24° C. for 3 hrs. Purified SOS1 (aa 564-1049) protein, GTPYS (Sigma) and GST-cRaf RBD (aa 1-149) were then added to each well and incubated at 24° C. for additional 3 hrs. […] Following the incubation, Mab Anti-6HIS-Tb cryptate (Cisbio) and Mab Anti GST-XL665 (Cisbio) were added and further incubated at 24° C. for 3 hrs. The binding interaction between active GTPγS KRAS G12C and GST-cRaf RBD brings the Tb and XL665 into close proximity enabling an increased FRET signal (Ex337 nm, Em665 nm/620 nm). The inhibition percentage of nucleotide exchange reaction in presence of increasing concentrations of compounds was calculated based on the ratio of fluorescence at 665 nm to that at 620 nm detected on a BMG PHERAstar FSX instrument. The IC50 value of each compound was calculated from fitting the data to the four-parameter logistic model by Dotmatics.
In the case of `C=CC(=O)N1CCN(c2nc(OC[C@@H]3CCCN3C)nn3c(Cc4cccc5ccccc45)cnc23)CC1` [Compound A1, (S)-1-(4-(2-((1-methylpyrrolidin-2-yl)methoxy)-7-(naphthalen-1-ylmethyl)imidazo[2,1-f][1,2,4]triazin-4-yl)piperazin-1-yl)prop-2-en-1-one], the IC50 came to 3.28 µM.
Same read-out and setting: the same measure for `C=CC(=O)N1CCN(c2nc(OC[C@@H]3CCCN3C)nn3c(Cc4cc(O)cc5ccccc45)cnc23)CC1` [Compound A2, (S)-1-(4-(7-((3-hydroxynaphthalen-1-yl)methyl)-2-((1-methylpyrrolidin-2-yl)methoxy)imidazo[2,1-f][1,2,4]triazin-4-yl)piperazin-1-yl)prop-2-en-1-one]: 0.427 µM; for `C=CC(=O)N1CCN(c2nc(OC[C@@H]3CCCN3C)nn3c(Cc4cccc5ccccc45)cnc23)C[C@@H]1CC#N` [Compound A4, 2-((S)-1-acryloyl-4-(2-(((S)-1-methylpyrrolidin-2-yl)methoxy)-7-(naphthalen-1-ylmethyl)imidazo[2,1-f][1,2,4]triazin-4-yl)piperazin-2-yl)acetonitrile]: 0.0467 µM; for `C=CC(=O)N1CCN(c2nc(OC[C@@H]3CCCN3C)nn3c(Cc4cc(O)cc5ccccc45)cnc23)C[C@@H]1CC#N` [Compound A5, 2-((S)-1-acryloyl-4-(7-((3-hydroxynaphthalen-1-yl)methyl)-2-(((S)-1-methylpyrrolidin-2-yl)methoxy)imidazo[2,1-f][1,2,4]triazin-4-yl)piperazin-2-yl)acetonitrile]: 0.029 µM.
Still for that read-out and setting: in the case of `C=CC(=O)N1CCN(c2nc(OC[C@@H]3CCCN3C)nn3c(Cc4cccc5cccc(Cl)c45)cnc23)C[C@@H]1CC#N` [Compound A6, 2-((S)-1-acryloyl-4-(7-((8-chloronaphthalen-1-yl)methyl)-2-(((S)-1-methylpyrrolidin-2-yl)methoxy)imidazo[2,1-f][1,2,4]triazin-4-yl)piperazin-2-yl)acetonitrile] it was 0.1 µM; in that of `C=CC(=O)N1CCN(c2nc(OC[C@@H]3CCCN3C)nn3c(Cc4cccc5cccc(C)c45)cnc23)C[C@@H]1CC#N` [Compound A7, 2-((S)-1-acryloyl-4-(7-((8-methylnaphthalen-1-yl)methyl)-2-(((S)-1-methylpyrrolidin-2-yl)methoxy)imidazo[2,1-f][1,2,4]triazin-4-yl)piperazin-2-yl)acetonitrile], 0.0478 µM.
The same measure, in the same setting: in the case of `C=CC(=O)N1CCN(c2nc(OC[C@@H]3CCCN3C)nn3c(Cc4ccc5ccccc5c4)cnc23)C[C@@H]1CC#N` [Compound A8, 2-((S)-1-acryloyl-4-(2-(((S)-1-methylpyrrolidin-2-yl)methoxy)-7-(naphthalen-2-ylmethyl)imidazo[2,1-f][1,2,4]triazin-4-yl)piperazin-2-yl)acetonitrile] it was 7.7 µM; in that of `C=CC(=O)N1CCN(c2nc(OC[C@@H]3CCCN3C)nn3c(Cc4cccc5c4CCO5)cnc23)C[C@@H]1CC#N` [Compound A9, 2-((S)-1-acryloyl-4-(7-((2,3-dihydrobenzofuran-4-yl)methyl)-2-(((S)-1-methylpyrrolidin-2-yl)methoxy)imidazo[2,1-f][1,2,4]triazin-4-yl)piperazin-2-yl)acetonitrile], 1.06 µM.
For `C=CC(=O)N1CCN(c2nc(OC[C@@H]3CCCN3C)nn3c(Cc4ccc(OC)c5ccccc45)cnc23)C[C@@H]1CC#N` [Compound A10, 2-((S)-1-acryloyl-4-(7-((4-methoxynaphthalen-1-yl)methyl)-2-(((S)-1-methylpyrrolidin-2-yl)methoxy)imidazo[2,1-f][1,2,4]triazin-4-yl)piperazin-2-yl)acetonitrile], the half-inhibitory concentration (IC50) amounted to 0.187 µM.
The same measure, in the same setting: in the case of `C=CC(=O)N1CCN(c2nc(OC[C@@H]3CCCN3C)nn3c(Cc4c(F)cccc4Cl)cnc23)C[C@@H]1CC#N` [Compound A11, 2-((S)-1-acryloyl-4-(7-(2-chloro-6-fluorobenzyl)-2-(((S)-1-methylpyrrolidin-2-yl)methoxy)imidazo[2,1-f][1,2,4]triazin-4-yl)piperazin-2-yl)acetonitrile] it was 0.215 µM; in that of `C=CC(=O)N1CCN(c2nc(OC[C@@H]3CCCN3C)nn3c(Cc4ccccc4Cl)cnc23)C[C@@H]1CC#N` [Compound A12, 2-((S)-1-acryloyl-4-(7-(2-chlorobenzyl)-2-(((S)-1-methylpyrrolidin-2-yl)methoxy)imidazo[2,1-f][1,2,4]triazin-4-yl)piperazin-2-yl)acetonitrile], 0.217 µM.
On to `C=CC(=O)N1CCN(c2nc(OC[C@@H]3CCCN3C)nn3c(Cc4cccc5c4OCC5)cnc23)C[C@@H]1CC#N` [Compound A13, 2-((S)-1-acryloyl-4-(7-((2,3-dihydrobenzofuran-7-yl)methyl)-2-(((S)-1-methylpyrrolidin-2-yl)methoxy)imidazo[2,1-f][1,2,4]triazin-4-yl)piperazin-2-yl)acetonitrile], for which the half-inhibitory concentration (IC50) was 0.101 µM.
As to `C=CC(=O)N1CCN(c2nc(OC[C@@H]3CC(F)(F)CN3C)nn3c(Cc4cccc5ccccc45)cnc23)C[C@@H]1CC#N` [Compound A14, 2-((S)-1-acryloyl-4-(2-(((S)-4,4-difluoro-1-methylpyrrolidin-2-yl)methoxy)-7-(naphthalen-1-ylmethyl)imidazo[2,1-f][1,2,4]triazin-4-yl)piperazin-2-yl)acetonitrile], the IC50 stood at 0.506 µM.
With `C=CC(=O)N1CCN(c2nc(OC[C@@H]3CCCN3C)nn3c(Cc4cccc5[nH]ncc45)cnc23)C[C@@H]1CC#N` [Compound A15, 2-((S)-4-(7-((1H-indazol-4-yl)methyl)-2-(((S)-1-methylpyrrolidin-2-yl)methoxy)imidazo[2,1-f][1,2,4]triazin-4-yl)-1-acryloylpiperazin-2-yl)acetonitrile], the concentration for half-maximal inhibition (IC50) is 1.18 µM.
As for `C=CC(=O)N1CCN(c2nc(OC[C@@H]3CCCN3C)nn3c(Cc4cccc5ccccc45)cnc23)[C@@H](C)C1` [Compound A17, 1-((S)-3-methyl-4-(2-(((S)-1-methylpyrrolidin-2-yl)methoxy)-7-(naphthalen-1-ylmethyl)imidazo[2,1-f][1,2,4]triazin-4-yl)piperazin-1-yl)prop-2-en-1-one], the IC50 was 2.93 µM.
Same read-out and setting: in the case of `C=CC(=O)N1CCN(c2nc(OC[C@@H]3CCCN3C)nn3c(Cc4ccccc4C(F)(F)F)cnc23)C[C@@H]1CC#N` [Compound A18, 2-((S)-1-acryloyl-4-(2-(((S)-1-methylpyrrolidin-2-yl)methoxy)-7-(2-(trifluoromethyl)benzyl)imidazo[2,1-f][1,2,4]triazin-4-yl)piperazin-2-yl)acetonitrile] it was 0.235 µM; in that of `C=CC(=O)N1CCN(c2nc(OC[C@@H]3CCCN3C)nn3c(Cc4ccc(O)c5ccccc45)cnc23)C[C@@H]1CC#N` [Compound A19, 2-((S)-1-acryloyl-4-(7-((4-hydroxynaphthalen-1-yl)methyl)-2-(((S)-1-methylpyrrolidin-2-yl)methoxy)imidazo[2,1-f][1,2,4]triazin-4-yl)piperazin-2-yl)acetonitrile], 0.0096 µM; in that of `C=CC(=O)N1CCN(c2nc(OC[C@@H]3CCCN3C)nn3c(Cc4c(O)cccc4F)cnc23)C[C@@H]1CC#N` [Compound A20, 2-((S)-1-acryloyl-4-(7-(2-fluoro-6-hydroxybenzyl)-2-(((S)-1-methylpyrrolidin-2-yl)methoxy)imidazo[2,1-f][1,2,4]triazin-4-yl)piperazin-2-yl)acetonitrile], 0.0191 µM.
Same read-out and setting: the same measure for `C=CC(=O)N1CCN(c2nc(OC[C@@H]3CCCN3C)nn3c(Cc4c(O)ccc5ccccc45)cnc23)C[C@@H]1CC#N` [Compound A21, 2-((S)-1-acryloyl-4-(7-((2-hydroxynaphthalen-1-yl)methyl)-2-(((S)-1-methylpyrrolidin-2-yl)methoxy)imidazo[2,1-f][1,2,4]triazin-4-yl)piperazin-2-yl)acetonitrile]: 0.0208 µM.
On the same count and under the same terms, the same measure for `C=CC(=O)N1CCN(c2nc(OC[C@@H]3CCCN3C)nn3c(C4CCc5ccccc54)cnc23)C[C@@H]1CC#N` (stereo partly drawn) [Compound A22, 2-((2S)-1-acryloyl-4-(7-(2,3-dihydro-1H-inden-1-yl)-2-(((S)-1-methylpyrrolidin-2-yl)methoxy)imidazo[2,1-f][1,2,4]triazin-4-yl)piperazin-2-yl)acetonitrile]: 0.201 µM.

The experiment is the same for the next values; noted with them: same assay; the cell prints uM although the column head says nmol.
Turning to `C=CC(=O)N1CCN(c2nc(OC[C@@H]3CCCN3C)nn3c(-c4cc(OC)cc5ccccc45)cnc23)C[C@@H]1CC#N` [Compound A3, 2-((S)-1-acryloyl-4-(7-(3-methoxynaphthalen-1-yl)-2-(((S)-1-methylpyrrolidin-2-yl)methoxy)imidazo[2,1-f][1,2,4]triazin-4-yl)piperazin-2-yl)acetonitrile], the IC50 was more than 10 µM.
As for `C=CC(=O)N1CCN(c2nc(OC[C@@H]3CCCN3C)nn3c(Cc4cccc5[nH]ncc45)cnc23)C[C@@H]1CC(N)=O` [Compound A16, 2-((S)-4-(7-((1H-indazol-4-yl)methyl)-2-(((S)-1-methylpyrrolidin-2-yl)methoxy)imidazo[2,1-f][1,2,4]triazin-4-yl)-1-acryloylpiperazin-2-yl)acetamide], the half-maximal inhibitory concentration (IC50) is more than 10 µM.

The term IC50 denotes the concentration at which inhibition is half-maximal.
